This note sets out measurements from ChEMBL document CHEMBL1156829 (Proc Natl Acad Sci U S A, 2008).

In data set [1] the test system is Plasmodium falciparum. The data set can be described thus: NOVARTIS: Inhibition of Plasmodium falciparum W2 (drug-resistant) proliferation in erythrocyte-based infection assay. Format: functional, organism-based. The following applies: Plasmodium falciparum, W2; read-out: EC50.
Data set [2] in a line: NOVARTIS: Cytotoxicity against human hepatocellular carcinoma cell line (Huh7). Format: toxicity, cell-based, Huh-7. To be noted: Huh7 cells (hepatocellular carcinoma cell line).
The test system of data set [3] is Plasmodium falciparum. The data set can be described thus: NOVARTIS: Inhibition of Plasmodium falciparum 3D7 (drug-susceptible) proliferation in erythrocyte-based infection assay. To be noted: Plasmodium falciparum, 3D7. Format: functional, organism-based.

As usually defined, the EC50 is the concentration giving half of the maximal effect. As a reminder, the CC50 is the concentration giving 50% cytotoxicity. For the compound `C(#Cc1ccccc1)C[N+]1(CC#Cc2ccc(C#CC[N+]3(CC#Cc4ccccc4)CCCCC3)cc2)CCCCC1`, the concentration giving a half-maximal response (EC50) is 252 nM with Plasmodium falciparum [1] and 493 nM in the data set on Plasmodium falciparum [3]. Moreover, in data set [2], the half-maximal cytotoxic concentration (CC50) is greater than 100000 nM.

Regarding `CC(C)c1ccc(NC(=O)C=Cc2ccccc2Cl)cc1`, the concentration for a half-maximal effect (EC50) in the data set on Plasmodium falciparum [1] was 45.6 nM; in the data set with Plasmodium falciparum [3], 102 nM. This compound showed a CC50 in data set [2] of 17500 nM.

As to `O=C(Nc1ccc(NC2=NCCN2)cc1)c1ccc(C(=O)Nc2ccc(NC3=NCCN3)cc2)cc1`, the results for the EC50 with Plasmodium falciparum [1] and with Plasmodium falciparum [3] were 25.6 nM and 166 nM, respectively. In addition, the CC50 in data set [2] was greater than 10000 nM.

`COc1cc(OC)cc(C(=O)NCc2n[nH]c(=S)n2-c2cccc(C(F)(F)F)c2)c1`: the results for the EC50 in the data set on Plasmodium falciparum [1] and in the data set with Plasmodium falciparum [3] were 261 nM and 258 nM, respectively. This compound returned a 50% cytotoxic concentration (CC50) in data set [2] greater than 100000 nM.

Turning to `Cc1cc(C)c2c(c1)OC(N)(C(Cl)(Cl)Cl)CC2=O` (stereo unspecified), the concentration for a half-maximal effect (EC50) with Plasmodium falciparum [1] is 260 nM; in the data set with Plasmodium falciparum [3], 435 nM. The compound also displayed a CC50 in data set [2] greater than 100000 nM.

Regarding `CCCCNCC(O)(c1ccc(Cl)cc1)c1ccc(Cl)cc1`, the half-maximal effective concentration (EC50) with Plasmodium falciparum [1] is 99.7 nM; with Plasmodium falciparum [3], 720 nM. In data set [2], the cytotoxic concentration (CC50) is 38500 nM.

As for `COc1ccccc1NC(=O)N(CCC(C)C)C(C)c1nc2ccccc2c(=O)n1-c1ccccc1Cl` (stereo unspecified), the values for the half-maximal effective concentration (EC50) in the data set on Plasmodium falciparum [1] and in the data set on Plasmodium falciparum [3] were less than 25.8 nM and 817 nM, respectively. In data set [2], this compound displayed a half-maximal cytotoxic concentration (CC50) greater than 10000 nM.

`CSC(Cl)=C(NC(C)=O)[P+](c1ccccc1)(c1ccccc1)c1ccccc1`: the values for the concentration for a half-maximal effect (EC50) with Plasmodium falciparum [1] and with Plasmodium falciparum [3] were 257 nM and 126 nM, respectively. Besides, the cytotoxic concentration (CC50) in data set [2] was greater than 100000 nM.

Turning to `CCCN1CCC(NC(c2ccccc2)c2ccc(Cl)cc2)CC1` (stereo unspecified), the results for the half-maximal effective concentration (EC50) with Plasmodium falciparum [1] and in the data set with Plasmodium falciparum [3] were 51.9 nM and 753 nM, respectively. In addition, half-maximal cytotoxicity in data set [2] (CC50) was put at 20200 nM.

On to `COc1c2occc2c(OC)c2c(=O)cc(C(Cl)(Cl)Cl)oc12`, for which the EC50 in the data set with Plasmodium falciparum [1] was 254 nM; in the data set with Plasmodium falciparum [3] it was 646 nM. Also, in data set [2], the half-maximal cytotoxic concentration (CC50) is greater than 100000 nM.

In the case of `CCOC(=O)c1ccc(NCc2c(C)[nH]c3ccccc3c2=O)cc1`, the EC50 in the data set with Plasmodium falciparum [1] worked out at 254 nM; with Plasmodium falciparum [3], 342 nM. For the same compound, the half-maximal cytotoxic concentration (CC50) in data set [2] was greater than 100000 nM.

For the compound `Cc1ccc2c(c1)-c1c(ssc1=S)C(C)(C)N2C(=O)c1ccco1`, the EC50 in the data set on Plasmodium falciparum [1] worked out at 254 nM; in the data set with Plasmodium falciparum [3] it was 276 nM. Moreover, the CC50 in data set [2] is greater than 100000 nM.

Consider `O=C1C(NC2CCCCC2)=C(N2CCOCC2)C(=O)c2ccccc21`, for which the results for the EC50 in the data set on Plasmodium falciparum [1] and in the data set on Plasmodium falciparum [3] were 116 nM and 139 nM, respectively. This compound returned a CC50 in data set [2] of 46100 nM.

As to `Cc1ccc2[nH]c3c(NCCN4CCCCC4)ncnc3c2c1`, the concentration giving a half-maximal response (EC50) with Plasmodium falciparum [1] was determined as 99 nM; with Plasmodium falciparum [3] it was 216 nM. In data set [2], this compound gave a 50% cytotoxic concentration (CC50) of 39700 nM.

As for `CC1=C(C(=O)OC2CCCC2)C(c2ccccc2F)C2=C(CC(c3ccccc3)CC2=O)N1` (stereo unspecified), the half-maximal effective concentration (EC50) in the data set with Plasmodium falciparum [1] amounted to 259 nM; in the data set with Plasmodium falciparum [3] it was 541 nM. The compound further had a CC50 in data set [2] greater than 100000 nM.

`CCCCNC(=O)CSCc1cnn(-c2ccccc2)c1-n1cccc1`: the EC50 worked out at 257 nM in the data set on Plasmodium falciparum [1] and 253 nM in the data set with Plasmodium falciparum [3]. The compound further had a half-maximal cytotoxic concentration (CC50) in data set [2] greater than 100000 nM.

In the case of `Oc1ccc(-c2ccnc3cc(Cl)ccc23)cc1CNC1CCCCC1`, the EC50 in the data set on Plasmodium falciparum [1] was 15.2 nM; in the data set on Plasmodium falciparum [3] it was 119 nM. The same compound yielded a CC50 in data set [2] of 5940 nM.

As for `Cc1ccccc1C=NNc1nc2ccccc2[nH]1`, the EC50 came to 249 nM with Plasmodium falciparum [1] and 605 nM with Plasmodium falciparum [3]. In data set [2], this compound displayed a CC50 greater than 100000 nM.

Regarding `CCN(CC)CCNC(=O)c1cc(-c2ccc(Cl)cc2)cc(-n2cnnn2)c1`, the 50% effective concentration (EC50) in the data set on Plasmodium falciparum [1] is less than 26.1 nM; in the data set with Plasmodium falciparum [3] it was 644 nM. The compound further came in with a cytotoxic concentration (CC50) in data set [2] greater than 10000 nM.

As to `CC[n+]1cccc2ccc3cccnc3c21`, the values for the EC50 in the data set with Plasmodium falciparum [1] and with Plasmodium falciparum [3] were 257 nM and 553 nM, respectively. The CC50 in data set [2] was greater than 100000 nM.

On to `COc1cc(OC)cc(C(=O)NCc2n[nH]c(=S)n2-c2ccc(Br)cc2)c1`, for which the EC50 amounted to 252 nM in the data set with Plasmodium falciparum [1] and 325 nM in the data set on Plasmodium falciparum [3]. Besides, the CC50 in data set [2] is greater than 100000 nM.

For `O=C(Nc1ccc2nc3n(c(=O)c2c1)CCCCC3)C(=O)N1CCN(c2cccc(Cl)c2)CC1`, the 50% effective concentration (EC50) in the data set on Plasmodium falciparum [1] amounted to 250 nM; with Plasmodium falciparum [3], 1810 nM. In data set [2], this compound came in with a cytotoxic concentration (CC50) greater than 100000 nM.
